14 compounds from patent US6872711B2, “β-substituted β-aminoethyl phosphonate derivatives” (Ilex Oncology Research S.A., priority 2000, dated 2005) can be followed below.

Series [1] deals with apo(a) secretion in primary cultures of Cynomolgus hepatocytes. The experiment in a line: Lowering the production of apo(a) in primary cultures of Cynomolgus hepatocytes (ELISA of culture medium). In kind it is cell-based, Cynomolgus monkeys. The settings on record: Macaca fascicularis, Hepatocyte, tested at 20 μM, 6-24 hours incubation, one range stated for all listed compounds, read-out: lowering of apo(a) secretion (change vs control plates). As to the method:
The compounds of formula (I) were assayed for lowering the production of apo(a) in primary cultures of Cynomolgus hepatocytes.
Protocol: Hepatocytes were isolated from livers of male adult Cynomolgus monkeys by the two-step collagenase perfusion method according to C. Guguen-Guillouzo and A. Guillouzo “Methods for preparation of adult and fetal hepatocytes” p.1-12in “Isolated and Cultured Hepatocytes,” les editions Inserm Paris and John Libbey Eurotext London (1986).
The viability of cells was determined by Trypan blue staining. The cells were then seeded at a density of 1.5-2.10^5 viable cells per 2 cm^2 in 24 well tissue culture plates in a volume of 500 μl per well of Williams E tissue culture medium containing 10% fetal calf serum. Cells were incubated for 6-24 hours at 37° C. in a CO2 incubator (5% CO2) in the presence of 20 μM of the test compounds dissolved in ethanol. Four wells were used for each compound. Nicotinic acid and steroid hormones were used as references to validate the assay system since they are known to decrease Lp(a) in man. Control cells were incubated in the presence of ethanol only.
The amount of Lp(a) secreted in culture medium was directly assayed by ELISA using a commercially available kit. Cells were washed and lysed as described by A. L. White et al., Journal of Lipid Research vol. 34, p. 509-517, (1993) and the cellular content of Lp(a) was assayed as described above. Changes in Lp(a) concentration in culture medium are given as the percentage of value measured for the control plates.
Background: ELISA stands for enzyme-linked immunosorbent assay.

As usually defined, the melting point is the temperature, or range, at which the solid turns liquid. As for `COc1cc(C(CP(=O)(OC(C)C)OC(C)C)Nc2cccnc2)cc(C)c1O` (stereo not drawn) [Compound 10, diisopropyl β-(4-hydroxy-3-methoxy-5-methylphenyl)-β-[N-(3-pyridyl)-amino]-ethylphosphonate], the melting point fell in the range of 135 to 137 °C. Besides, in series [1], the inhibition at 20 µM was in the range of 10 to 35%.

`CCOc1cc(C(CP(=O)(OCC)OCC)Nc2cccnc2)cc(C)c1O` (stereo not drawn) [Compound 20, diethyl β-(3-ethoxy-4-hydroxy-5-methylphenyl)-β-[N-(3-pyridyl)-amino]-ethylphosphonate] yielded a melting point of 162 to 164 °C. Moreover, the inhibition at 20 µM in series [1] was in the range of 10 to 35%.

In the case of `COc1cc(C(CP(=O)(OC(C)C)OC(C)C)Nc2cccnc2)cc(OC)c1OC` (stereo not drawn) [Compound 19, diisopropyl β-(3,4,5-trimethoxyphenyl)-β-[N-(3-pyridyl)-amino]-ethylphosphonate], the melting point lay within 96 to 98 °C. Besides, the inhibition at 20 µM in series [1] was 10 to 35%.

`CCOc1cc(C(CP(=O)(OC(C)C)OC(C)C)Nc2cccnc2)cc(C)c1O` (stereo not drawn) [Compound 21, diisopropyl β-(3-ethoxy-4-hydroxy-5-methylphenyl)-β-[N-(3-pyridyl)-amino]-ethylphosphonate] yielded a melting point of 148 to 150 °C. The inhibition at 20 µM in series [1] was in the range of 10 to 35%.

For `CCOP(=O)(CC(Nc1cccnc1)c1cc(C(C)(C)C)c(OC)c(C(C)(C)C)c1)OCC` (stereo not drawn) [Compound 30, diethyl β-(3,5-di-tert-butyl-4-methoxyphenyl)-β-[N-(3-pyridyl)-amino]-ethylphosphonate], the inhibition at 20 µM in series [1] is 10 to 35%.

Take `CCOP(=O)(CC(Nc1cccnc1)c1cc(OC)c(O)c(OC)c1)OCC` (stereo not drawn) [Compound 1, diethyl β-(3,5-dimethoxy-4-hydroxyphenyl)-β-[N-(3-pyridyl)-amino]-ethylphosphonate]: the melting point lay in the range of 164 to 166 °C. Further, the inhibition at 20 µM in series [1] lay within 10 to 35%.

Compound `CCOP(=O)(CC(Nc1cccnc1)c1cc(C)c(O)c(C)c1)OCC` (stereo not drawn) [Compound 16, diethyl β-(3,5-dimethyl-4-hydroxyphenyl)-β-[N-(3-pyridyl)-amino]-ethylphosphonate] showed a melting point of 98 to 101 °C. For the same compound, the inhibition at 20 µM in series [1] was 10 to 35%.

Take `Cc1cc(C(CP(=O)(OC(C)C)OC(C)C)Nc2cccnc2)cc(C)c1O` (stereo not drawn) [Compound 17, diisopropyl β-(3,5-dimethyl-4-hydroxyphenyl)-β-[N-(3-pyridyl)-amino]-ethylphosphonate]: the melting point was 104 to 105 °C. Also, in series [1], the inhibition at 20 µM fell in the range of 10 to 35%.

In turn, `CCOP(=O)(CC(Nc1cccnc1)c1cc(O)c(C)c(OC)c1)OCC` (stereo not drawn) [Compound 34, diethyl β-(3-hydroxy-5-methoxy-4-methylphenyl)-β-[N-(3-pyridyl)-amino]-ethylphosphonate] registered a melting point of 146 to 147 °C. For the same compound, the inhibition at 20 µM in series [1] was 10 to 35%.

On to `CCOP(=O)(CC(Nc1cccnc1)c1cc(OC)c(CO)c(OC)c1)OCC` (stereo not drawn) [Compound 37, diethyl β-(3,5-dimethoxy-4-hydroxymethylphenyl)-β-[N-(3-pyridyl)-amino]-ethylphosphonate], for which the inhibition at 20 µM in series [1] lay within 10 to 35%.

`CCOP(=O)(CC(Nc1cccnc1)c1cc(OC)c(OC)c(OC)c1)OCC` (stereo not drawn) [Compound 18, diethyl β-(3,4,5-trimethoxyphenyl)-β-[N-(3-pyridyl)-amino]-ethylphosphonate]: the melting point was 104 to 106 °C. Moreover, the inhibition at 20 µM in series [1] lay in the range of 10 to 35%.

Regarding `CCOP(=O)(CC(Nc1cccnc1)c1ccc(C)c(O)c1C)OCC` (stereo not drawn) [Compound 31, diethyl β-(2,4-dimethyl-3-hydroxyphenyl)-β-[N-(3-pyridyl)-amino]-ethylphosphonate], the inhibition at 20 µM in series [1] was in the range of 10 to 35%.

The compound `CCOP(=O)(CC(Nc1cccnc1)c1cc(C)c(O)c(OC)c1)OCC` (stereo not drawn) [Compound 9, diethyl β-(4-hydroxy-3-methoxy-5-methylphenyl)-β-[N-(3-pyridyl)-amino]-ethylphosphonate] yielded a melting point of 156 to 158 °C. In addition, in series [1], the inhibition at 20 µM lay in the range of 10 to 35%.

Consider `COc1cc(C(CP(=O)(OC(C)C)OC(C)C)Nc2cccnc2)cc(OC)c1O` (stereo not drawn) [Compound 2, diisopropyl β-(3,5-dimethoxy-4-hydroxyphenyl)-β-[N-(3-pyridyl)-amino]-ethylphosphonate], for which the melting point fell in the range of 138 to 140 °C. In series [1], the inhibition at 20 µM fell in the range of 10 to 35%.
